Data on one compound can be found in patent publication US6582961B1, “Methods of protecting plants from pathogens” (priority 1998, dated 2003).

Common to all, as to assay type: in vivo, Phaseolus vulgaris
The subject of assay [1] is phenylalanine ammonia lyase (PAL) mRNA. The assay can be described thus: Northern blot of phenylalanine ammonia lyase (PAL) mRNA in sprayed bean plants. As for the experimental part: FIG. 2 is a northern blot of RNA probed for expression of phenylalanine ammonia lyase (“PAL”). RNA was extracted from 14 day-old red kidney bean plants 24 hours after leaves of the plants were sprayed until wet with one of four treatments. Lane 1: water-only control. Lane 2: treatment with 3,500 ppm of PAA. Lane 3: treatment with 10,000 ppm of PAA. Lane 4: treatment with 3,500 ppm of PAA plus 200 ppm of inducer mixture.
Bean plants were grown and treated in the same manner as in the previous Example, except that a water-only control was run, but not a test of systemic inducer without PAA. Total RNA was extracted and gels were loaded, run, and analyzed following the procedures discussed in previous Example, with the exception that no lane was run containing RNA from plants sprayed with a systemic inducer without an ROS present. Probe for PAL mRNA transcripts was prepared following the procedures set forth in Blee, K. A., and Anderson, A. J. “Defense-related transcript accumulation in Phaseolus vulgaris L. colonized by the arbuscular mycorrhizal fungus Glomus intraradices Schenck & Smith.” Plant Physiol. 110: 675-688 (1996).

The test system of assay [2] is hydroxyproline-rich glycoprotein (HYP) RNA. The assay can be described thus: Northern blot of hydroxyproline-rich glycoprotein (HYP) RNA in sprayed bean plants. As for the experimental part: FIG. 3 is a northern blot of RNA probed for expression of hydroxyproline-rich glycoproteins (“HPRG” or “HYP”). RNA was extracted from 14 day-old red kidney bean plants 24 hours after leaves of the plants were sprayed until wet with one of five treatments. Lane 1: water-only control. Lane 2: treatment with 3,500 ppm of PAA. Lane 3: treatment with 10,000 ppm of PAA. Lane 4: treatment with 3,500 ppm of PAA plus 200 ppm of inducer mixture. Lane 5: treatment with 10,000 ppm of PAA plus 200 ppm of inducer mixture. Lane 6: treatment with 200 ppm of inducer mixture, without presence of PAA.
Bean plants were grown and treated as in Example 2. Total RNA was extracted and gels were loaded, run, and analyzed following the procedures discussed in Example 2. Probes for HYP were prepared following the procedures set forth in Blee and Anderson, supra.

Assay [3] concerns PR-1a gene RNA expression. The assay can be described thus: Northern blot of PR-1a RNA in sprayed red kidney bean plants. Here is the method:
FIG. 1 is a northern blot of RNA probed for expression of PR-1a protein. RNA was extracted from 14 day-old red kidney bean plants 24 hours after leaves of the plants were sprayed until wet with one of five treatments. Lane 1: treatment with 3,500 ppm of peracetic acid (“PAA”). Lane 2: treatment with 10,000 ppm of PAA. Lane 3: treatment with 3,500 ppm of PAA plus 200 ppm of salicylic acid/humic acid mixture (see Example 1; hereafter “inducer mixture”). Lane 4: treatment with 10,000 ppm of PAA and 200 ppm of inducer mixture. Lane 5: treatment with 200 ppm inducer mixture, without PAA.
Fourteen-day old red kidney bean plants (Phaseolus vulgaris) were sprayed from an overhead boom until the leaves were wet and spray began to run off them. […]
The plants were then left for 24 hours, after which the leaves were subjected to extraction of their total RNA by the procedure described in Logemann, J., et al, “Improved method for the isolation of RNA from plant tissues.” Anal Biochem. 163:16-20 (1987). […] Hybridization was observed and analyzed by chemiluminescent detection of the bound probes using the “Genius System,” (Boehringer Mannheim Corporation, Indianapolis, Ind.), following the manufacturer's directions. […]

With `CC(=O)OO` [peracetic acid], the “mRNA for PAL genes” value in assay [1] (peracetic acid 3,500 ppm, 24 hours, FIG. 2 lane 2) is listed as “increase in mRNA for PAL genes over that of the water control”; in assay [1] (peracetic acid 10,000 ppm, compared to 3,500 ppm, FIG. 2 lane 3), “substantial increase”. Moreover, the “RNA levels from HYP genes” value is listed as “increase in RNA levels from HYP genes over that of the water control” in assay [2] (peracetic acid 3,500 ppm, FIG. 3 lane 2) and “substantially more hybridizing RNA” in assay [2] (peracetic acid 10,000 ppm, compared to 3,500 ppm, FIG. 3 lane 3). Further, the “PR-1a gene RNA expression” value in assay [3] (peracetic acid 3,500 ppm, leaves sprayed, RNA after 24 hours, FIG. 1 lane 1) is recorded as “increased”; in assay [3] (peracetic acid 10,000 ppm, 24 hours, FIG. 1 lane 2), “higher amounts”.
